Data taken from ChEMBL document CHEMBL1148695, “Synthesis and biological activity of nociceptin/orphanin FQ analogues substituted in position 7 or 11 with Calpha,alpha-dialkylated amino acids” (Bioorg Med Chem, 2007).
*1 amine or outer side, *2 acyl side, *3 side chain or, on linkers, in order; H or OH if unused. Where a SMILES comes first, the peptide text is derived from it. [ ]: non-standard residue; d: D form. X1 = N[C@@H](Cc1ccccc1)CN(CC(=O)[*:2])[*:1]; Phe(4-F) = N[C@@H](Cc1ccc(F)cc1)C(=O)O; Aib = CC(C)(N)C(=O)O

Columns and labels:
[1] = target: T1, Nociceptin receptor (Mus musculus, UniProt P35377); test: (§1) Agonist activity at NOP receptor in Swiss mouse vas deferens by [35S]GTP-gamma-S binding assay; type: functional, tissue-based
T1 sequence (P35377 whole entry): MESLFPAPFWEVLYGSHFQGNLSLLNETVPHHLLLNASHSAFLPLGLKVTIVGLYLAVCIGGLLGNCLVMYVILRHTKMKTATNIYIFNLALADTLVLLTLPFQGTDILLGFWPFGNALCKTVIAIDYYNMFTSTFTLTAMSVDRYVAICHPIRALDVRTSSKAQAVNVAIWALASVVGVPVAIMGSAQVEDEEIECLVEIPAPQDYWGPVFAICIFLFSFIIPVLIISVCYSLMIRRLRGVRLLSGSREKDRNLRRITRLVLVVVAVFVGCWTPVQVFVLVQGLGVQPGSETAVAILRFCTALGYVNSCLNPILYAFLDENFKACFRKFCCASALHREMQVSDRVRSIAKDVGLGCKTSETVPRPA

[2] = target: T2, Nociceptin receptor (Cavia porcellus, UniProt P47748); test: (§2) Agonist activity at NOP receptor in Albino guinea pig ileum assessed as effect on electrically stimulated contractions; type: functional, tissue-based
T2 sequence (P47748 whole entry): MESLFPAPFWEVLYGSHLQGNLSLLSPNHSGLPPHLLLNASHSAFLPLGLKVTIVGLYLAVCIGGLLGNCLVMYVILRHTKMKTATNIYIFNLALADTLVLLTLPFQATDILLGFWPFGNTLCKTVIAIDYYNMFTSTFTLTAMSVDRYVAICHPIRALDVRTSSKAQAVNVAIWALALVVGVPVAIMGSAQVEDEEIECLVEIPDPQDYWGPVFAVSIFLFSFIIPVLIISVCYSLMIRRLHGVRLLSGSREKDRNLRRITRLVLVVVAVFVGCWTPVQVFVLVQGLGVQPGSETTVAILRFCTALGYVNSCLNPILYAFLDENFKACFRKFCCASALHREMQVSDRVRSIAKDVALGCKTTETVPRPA

[3] = target: Mu-type opioid receptor (Homo sapiens, UniProt P35372); test: Displacement of [3H]diprenorphine from human recombinant mu opioid receptor expressed in CHO cells; type: cell-based
Mu-type opioid receptor, sequence (P35372 whole entry): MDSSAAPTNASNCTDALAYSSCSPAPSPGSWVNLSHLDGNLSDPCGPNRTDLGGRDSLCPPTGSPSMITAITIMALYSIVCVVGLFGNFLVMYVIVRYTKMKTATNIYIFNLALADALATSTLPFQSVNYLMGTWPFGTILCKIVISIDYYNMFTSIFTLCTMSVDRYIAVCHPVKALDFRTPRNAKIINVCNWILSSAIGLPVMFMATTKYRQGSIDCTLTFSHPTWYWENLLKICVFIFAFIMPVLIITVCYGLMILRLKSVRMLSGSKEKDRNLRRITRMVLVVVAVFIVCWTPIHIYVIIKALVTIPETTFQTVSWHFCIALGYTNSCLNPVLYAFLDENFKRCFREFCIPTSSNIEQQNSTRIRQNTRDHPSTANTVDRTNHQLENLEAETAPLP

[4] = target: T3, Nociceptin receptor (Rattus norvegicus, UniProt P35370); test: Antagonist activity at NOP receptor in Sprague-Dawley rat vas deferens assessed as effect on electrically stimulated contractions; type: functional, tissue-based; conditions: read-out: pA2 (converted)
T3 sequence (P35370 whole entry): as the sequence (P35377 whole entry) above, with F9Y, A335S counted along it

[5] = target: T1, Nociceptin receptor; test: Antagonist activity at NOP receptor in Swiss mouse vas deferens by [35S]GTP-gamma-S binding assay; type: functional, tissue-based; conditions: read-out: pA2 (converted)
[6] = target: T2, Nociceptin receptor; test: Antagonist activity at NOP receptor in Albino guinea pig ileum assessed as effect on electrically stimulated contractions; type: functional, tissue-based; conditions: read-out: pA2 (converted)
[7] = target: Delta-type opioid receptor (Homo sapiens, UniProt P41143); test: Displacement of [3H]diprenorphine from human recombinant delta opioid receptor expressed in CHO cells; type: cell-based
Delta-type opioid receptor, sequence (P41143 whole entry): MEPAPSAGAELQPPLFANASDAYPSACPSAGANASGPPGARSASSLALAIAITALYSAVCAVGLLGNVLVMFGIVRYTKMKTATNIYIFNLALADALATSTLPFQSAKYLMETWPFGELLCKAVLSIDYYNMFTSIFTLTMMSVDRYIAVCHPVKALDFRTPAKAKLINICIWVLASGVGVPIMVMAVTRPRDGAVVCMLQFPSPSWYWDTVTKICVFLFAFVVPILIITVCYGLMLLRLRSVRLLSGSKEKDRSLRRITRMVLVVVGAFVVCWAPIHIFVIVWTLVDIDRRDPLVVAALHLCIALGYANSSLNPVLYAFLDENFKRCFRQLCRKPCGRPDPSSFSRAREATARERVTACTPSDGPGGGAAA

[8] = target: Nociceptin receptor (Mus musculus) (UniProt P35377); test: as §1; type: functional, tissue-based
Nociceptin receptor (Mus musculus), sequence (P35377 whole entry): as the sequence (P35377 whole entry) above

[9] = target: T3, Nociceptin receptor; test: Agonist activity at NOP receptor in Sprague-Dawley rat vas deferens assessed as effect on electrically stimulated contractions; type: functional, tissue-based
[10] = target: Nociceptin receptor (Cavia porcellus) (UniProt P47748); test: as §2; type: functional, tissue-based
Nociceptin receptor (Cavia porcellus), sequence (P47748 whole entry): as the sequence (P47748 whole entry) above

Q: How did the EC50 [1] turn out when `CC(C)C[C@H](NC(=O)[C@H](CCCCN)NC(=O)[C@H](CCCN=C(N)N)NC(=O)[C@H](C)NC(=O)[C@H](CO)NC(=O)[C@H](CCCCN)NC(=O)[C@H](CCCN=C(N)N)NC(=O)[C@H](C)NC(=O)CNC(=O)[C@@H](NC(=O)[C@H](Cc1ccccc1)NC(=O)CNC(=O)CNC(=O)[C@@H](N)Cc1ccccc1)[C@@H](C)O)C(=O)N[C@@H](C)C(=O)N[C@@H](CC(N)=O)C(=O)N[C@@H](CCC(N)=O)C(=O)O` [NOCICEPTIN] was run?
A: Its EC50 is 35.5 nM.

Q: And the EC50 [2]?
A: Its EC50 is 8.91 nM.

Q: What does the source list for `C[C@H](NC(=O)[C@H](CO)NC(=O)[C@H](CCCCN)NC(=O)[C@H](CCCNC(=N)N)NC(=O)C(C)(C)NC(=O)CNC(=O)[C@@H](NC(=O)[C@H](Cc1ccccc1)NC(=O)CNC(=O)CNC(=O)CNCc1ccccc1)[C@@H](C)O)C(=O)N[C@@H](CCCNC(=N)N)C(=O)N[C@@H](CCCCN)C(=O)N[C@@H](CCCNC(=N)N)C(=O)N[C@@H](CCCCN)C(=O)N[C@@H](CC(N)=O)C(=O)N[C@@H](CCC(N)=O)C(N)=O`?
A: Ki [3]: > 10 µM; Kb [4]: 87.1 nM; Kb [5]: 34.7 nM; Kb [6]: 46.8 nM; Ki [7]: > 10 µM

Q: With `C[C@H](NC(=O)[C@H](CO)NC(=O)[C@H](CCCCN)NC(=O)[C@H](CCCNC(=N)N)NC(=O)C(C)(C)NC(=O)CNC(=O)[C@@H](NC(=O)[C@H](Cc1ccc(F)cc1)NC(=O)CNC(=O)CNC(=O)[C@@H](N)Cc1ccccc1)[C@@H](C)O)C(=O)N[C@@H](CCCNC(=N)N)C(=O)N[C@@H](CCCCN)C(=O)N[C@@H](CCCNC(=N)N)C(=O)N[C@@H](CCCCN)C(=O)N[C@@H](CC(N)=O)C(=O)N[C@@H](CCC(N)=O)C(N)=O` as the compound, how does the Emax [8] read?
A: The Emax was 84%.

Q: What about the EC50 [1] of the same compound?
A: Its EC50 is 0.575 nM.

Q: What about the EC50 [9] of the same compound?
A: The EC50 was 4.57 nM.

Q: And the Emax [10]?
A: Its Emax is 32%.

Q: What about the EC50 [2] of the same compound?
A: The EC50 was 0.676 nM.

Q: With `C[C@H](NC(=O)[C@H](CO)NC(=O)[C@H](CCCCN)NC(=O)[C@H](CCCNC(=N)N)NC(=O)C(C)(C)NC(=O)CNC(=O)[C@@H](NC(=O)[C@H](Cc1ccc(F)cc1)NC(=O)CNC(=O)CNC[C@@H](N)Cc1ccccc1)[C@@H](C)O)C(=O)N[C@@H](CCCNC(=N)N)C(=O)N[C@@H](CCCCN)C(=O)N[C@@H](CCCNC(=N)N)C(=O)N[C@@H](CCCCN)C(=O)N[C@@H](CC(N)=O)C(=O)N[C@@H](CCC(N)=O)C(N)=O` (H-[X1]G[Phe(4-F)]TG[Aib]RKSARKRKNQ-NH2) as the compound, how does the Kb [4] read?
A: The Kb was 0.603 nM.

Q: What about the Kb [5] of the same compound?
A: Its Kb is 0.794 nM.

Q: What about the Kb [6] of the same compound?
A: The Kb was 0.316 nM.
